Publication PMC3283556, “The Activities of Current Antimalarial Drugs on the Life Cycle Stages of Plasmodium: A Comparative Study with Human and Rodent Parasites” (PLoS Medicine, 2012)
“Also recorded” adds a separate entry of the source.

Assays:
HepG2 cells = experiment: Growth retardation of HepG2 cells; conditions: for IC50: Homo sapiens, HepG2, read-out: IC50 HepG2
[1] = tested on: P. falciparum asexual blood stage parasites (strains NF54, D6, K1, W2, 7G8, TM90C2A, V1/S); experiment: [3H]-hypoxanthine incorporation growth inhibition assay, asexual blood stage; type: cell-based, Plasmodium falciparum; conditions: Plasmodium falciparum
[2] = tested on: P. berghei oocyst formation; experiment: Standard membrane feed assay, P. berghei oocysts in A. stephensi; type: in vivo, Plasmodium berghei; conditions: for transmission-blocking effect on P. berghei oocysts (words): 10 µM
Protocol: Membrane feeds were performed as described previously. Briefly, PbGFPcon-infected mouse blood was mixed with compounds, immediately placed into membrane feeders (39°C) and offered for 30 min to 80–100 overnight-starved A. stephensi (SDA 500 strain). After 7–9 d at 19°C/80%RH, mosquito midguts were dissected out. Midguts were fixed with paraformaldehyde and oocyst number was determined microscopically by semi-automated analysis as previously described.
Supplementary file pmed.1001169.s001.tif: Figure S1 The transmission-blocking potential of selected compounds against P. berghei in standard membrane feeding assays. All antimalarials were screened at 10 µM in triplicate in independent experiments. The biological content of this assay spans gamete formation through to occyst development all within the gut of the mosquito. […] (TIF) Click here for additional data file.

[3] = tested on: P. berghei ookinete formation; experiment: P. berghei ookinete development assay; type: cell-based, Plasmodium berghei; conditions: 10 µM
Protocol: Compounds and P. berghei gametocyte-infected blood were dispensed in a 96-well plate containing ookinete medium. After 24 h at 19°C, Giemsa-stained ookinetes were counted under the microscope (×40) as previously described,[28].
Figure 3 The transmission-blocking potential of selected antimalarials in three bioassays that cover different phases of Plasmodium vector stage development. (A) Assays examined exflagellation (P. falciparum), ookinete formation (P. berghei), or oocyst formation (P. falciparum). All antimalarials were screened at 10 µM. (B) The biological content of the in vitro P. berghei ookinete assay spans gamete formation, fertilization, zygote development, and ookinete formation. Ookinete formation was insensitive to most of the antimalarials tested. […] (D) The in vitro P. falciparum exflagellation assay exposes mature gametocytes to antimalarials for 24 h before triggering exflagellation. […] All experiments in triplicate. (E) The in vivo P. falciparum oocyst assay differs from the P. berghei oocyst assay in that mature gametocytes were exposed to the antimalarials in culture for 24 h before feeding to mosquitoes. […] NPC1161-B, lumefantrine, halofantrine, and mefloquine +RS isomer were also active. (n = 4–61 observations; average ± standard error of the mean [SEM]).

Row | Compound | IC50 (HepG2 cells) | CI (cytotoxicity index) (HepG2 cells; human, 48 h) | IC50 [1] | IC50 ([1]; multi-drug-resistant strains K1, W2 and 7G8) | transmission-blocking effect on P. berghei oocysts (words) [2] | CI (cytotoxicity index) (HepG2 cells; IC50 HepG2 compared to IC50 parasite) | IC50 ([1]; strain 7G8) | IC50 ([1]; strain NF54) | inhibition at 10 µM ([2]; Plasmodium berghei) | effect on ookinete formation [3]
1 | CCCCN(CCCC)CCC(O)c1cc2c(Cl)cc(Cl)cc2c2cc(C(F)(F)F)ccc12 (stereo not drawn) [halofantrine] | < 5660 nM | <2.44 | < 4 nM | 0.3 nM | impaired sporogony |  |  |  |  | 
2 | COc1cc(N[C@H](C)CCCN)c2nccc(C)c2c1Oc1ccc(Cl)c(Cl)c1 [NPC-1161B] | 840 ± 460 nM |  |  |  | most notable transmission-blocking activity; also recorded: showed potency | 1.17 | ~50 nM | ~500 nM | > 90% | all assays except the ookinete assay
